Reference: patent US7691848B2, “Pyrrolobenzodiazepine arylcarboxamides and derivatives thereof as follicle-stimulating hormone receptor antagonists” (Wyeth, priority 2005, dated 2010)
Like-named read-outs stand apart in the source and are kept apart here.

Tests used:
hFSH-R = molecular target: T1, hFSH-R (Homo sapiens, UniProt P23945); test: cAMP accumulation (RIA) in CHO-3D2 cells (hFSH-R), hFSH-induced; type: cell-based; conditions: for Emax: read-out: cAMP % efficacy
T1 construct: expressed in transfected cells; host or cells: CHO-3D2 cells (CHO-K1 parental line)
T1 sequence (P23945 18-695): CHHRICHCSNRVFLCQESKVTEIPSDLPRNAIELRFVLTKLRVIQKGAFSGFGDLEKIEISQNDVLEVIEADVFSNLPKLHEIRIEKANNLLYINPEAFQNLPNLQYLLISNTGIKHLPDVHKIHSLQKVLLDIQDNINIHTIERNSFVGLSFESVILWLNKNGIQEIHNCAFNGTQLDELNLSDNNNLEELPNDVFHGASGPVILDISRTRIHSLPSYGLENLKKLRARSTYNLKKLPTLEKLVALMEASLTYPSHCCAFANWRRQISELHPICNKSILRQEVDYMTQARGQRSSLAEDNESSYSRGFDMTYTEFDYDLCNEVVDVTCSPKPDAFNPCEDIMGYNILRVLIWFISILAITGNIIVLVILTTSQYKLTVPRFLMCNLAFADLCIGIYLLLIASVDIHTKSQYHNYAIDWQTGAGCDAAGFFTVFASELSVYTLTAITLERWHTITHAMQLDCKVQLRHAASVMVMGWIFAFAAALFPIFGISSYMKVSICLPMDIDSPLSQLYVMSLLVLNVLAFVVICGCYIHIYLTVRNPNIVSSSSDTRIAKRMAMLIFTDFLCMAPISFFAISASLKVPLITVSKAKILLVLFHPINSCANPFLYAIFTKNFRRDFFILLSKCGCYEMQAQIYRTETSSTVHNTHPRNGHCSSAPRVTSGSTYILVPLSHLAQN
Experimental: In Vitro Bio-Assay, Selectivity and Dependency of Agonists and Antagonists to the FSH Receptor
Compound Vehicle: Stock compounds were solubilized in 100% DMSO (Sigma-Aldrich Chemical Co., St. Louis, Mo.) at a concentration of 30 mM. The compounds subsequently were diluted in sterile assay medium consisting of Opti-MEM® I (Invitrogen/Life Technologies, Carlsbad, Calif.) with 0.1% (w/v) BSA (Sigma-Aldrich) prior to use in the bio-assay. The final concentration of DMSO in the assay was 0.1%.
Plated cells are then incubated at 37° C. in a humidified 5% CO2/95% air atmosphere.
Assay: On the day of the assay, cells were washed three times with 100 μl/well of assay medium consisting of Opti-MEM® I (Invitrogen/Life Technologies) with 0.1% (w/v) BSA (Sigma-Aldrich). Medium was removed and 100 μl of assay medium was added to each well. Plates were incubated for an additional 30 minutes at 37° C. […] Reactions were terminated by the addition of 50 μl of 0.2N hydrochloric acid to each well and cAMP-accumulation was measured by radioimmunoassay (RIA) using a commercially available kit (Amersham Biosciences, Piscataway, N.J.).
All test compounds were evaluated in a dose-response paradigm ranging from 0.01 to 30 μM. Controls and test compounds were evaluated in quadruplicate in a 96-well format.
Along with the test compounds, FSH also was run as a positive control in the agonist mode using concentrations ranging from 0.1-1000 ng/ml.
Data were analyzed by one-way analysis of variance and significant differences between treatments and control determined by Least Significant Difference test.
Test compounds were compared to the effect of purified human FSH.

human FSH receptor = molecular target: T2, human FSH receptor (Homo sapiens, UniProt P23945); test: Follicle-Stimulating Hormone Receptor-Dependent Cre-Luciferase Reporter Gene Assay (CHO FSH-R 6CRE-Luc cells); type: cell-based; conditions: for IC50: dose-response format, in presence of EC50 of purified human FSH
T2 construct: host or cells: CHO-K1 (CHO FSH-R 6CRE-Luc, 1D7 cells)
T2 sequence (P23945 18-695): T1 sequence (P23945 18-695)
Outline: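 CHO-K1 cells stably expressing human FSH receptor and a 6×CRE-driven luciferase reporter; compounds in growth medium with 0.2% DMSO, incubated 4 h at 37 °C. Luciferase measured by chemiluminescence (RLU/sec/well); 2-dose results given as percent inhibition of the response to an EC50 concentration of FSH.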

[1] = 2-dose format, concentration in parentheses 30 μM, inhibition of the response to EC50 of FSH
[2] = inhibition of cAMP accumulation induced by hFSH at EC20, CHO-3D2 cells

Row | SMILES | IC50 (hFSH-R) | Emax (hFSH-R) | IC50 (human FSH receptor) | melting point | inhibition at 30 µM (human FSH receptor; [1]) | IC50 (hFSH-R; [2]) | cAMP % efficacy (hFSH-R; [2]) | CRE % inhibition (μM) (human FSH receptor; [1])
1 | COc1ccccc1-c1ccc(C(=O)N2Cc3ccc(C(=O)NCC(c4ccccc4)N(C)C)n3Cc3ccccc32)cc1 (stereo not shown) [Example 2] | 1.2 µM | 100% | 25.7 µM |  |  |  |  | 
2 | Cc1ccccc1-c1ccc(C(=O)N2Cc3ccc(C(=O)NCc4cccc(O)c4)n3Cc3ccccc32)cc1C [Example 10] | 0.9 µM | 97% | 4.14 µM |  |  |  |  | 
3 | Cc1ccc(CNC(=O)c2ccc3n2Cc2ccccc2N(C(=O)c2ccc(-c4ccccc4C)c(C)c2)C3)cc1 [Example 14] | 2.6 µM | 86% | 1.71 µM | 179 to 181 °C |  |  |  | 
4 | Cc1ccccc1-c1ccc(C(=O)N2Cc3ccc(C(=O)NCc4ccccc4)n3Cc3ccccc32)cc1C [Example 15] | 0.4 µM | 90% | 2.6 µM | 138 to 141 °C |  |  |  | 
5 | Cc1ccccc1-c1ccc(C(=O)N2Cc3ccc(C(=O)NCc4cccc(C(F)(F)F)c4)n3Cc3ccccc32)cc1C [Example 16] | 14 µM | 65% | 8.5 µM | 171 to 173 °C |  |  |  | 
6 | Cc1ccccc1CNC(=O)c1ccc2n1Cc1ccccc1N(C(=O)c1ccc(-c3ccccc3C)c(C)c1)C2 [Example 17] | 2.6 µM | 88% | 6.39 µM | 128 to 130 °C |  |  |  | 
7 | COc1cc(CNC(=O)c2ccc3n2Cc2ccccc2N(C(=O)c2ccc(-c4ccccc4C)c(C)c2)C3)cc(OC)c1 [Example 20] | > 30 µM |  | 12 µM | 183 to 184 °C |  |  |  | 
8 | Cc1ccc(CNC(=O)c2ccc3n2Cc2ccccc2N(C(=O)c2ccc(-c4ccccc4C)c(C)c2)C3)c(C)c1 [Example 21] | > 30 µM |  | 6.2 µM | 159 to 161 °C |  |  |  | 
9 | Cc1cccc(CNC(=O)c2ccc3n2Cc2ccccc2N(C(=O)c2ccc(-c4ccccc4C)c(C)c2)C3)c1 [Example 22] | 3 µM | 62% | 2.88 µM | 130 to 132 °C |  |  |  | 
10 | Cc1ccccc1-c1ccc(C(=O)N2Cc3ccc(C(=O)NCc4ccc5c(c4)OCO5)n3Cc3ccccc32)cc1C [Example 23] | 7.7 µM | 77% | 1.41 µM | 149 to 151 °C |  |  |  | 
11 | Cc1ccccc1-c1ccc(C(=O)N2Cc3ccc(C(=O)NCCc4ccc5c(c4)OCO5)n3Cc3ccccc32)cc1C [Example 33] | > 30 µM |  | 5.65 µM |  |  |  |  | 
12 | COc1cc(C(=O)N2Cc3ccc(C(=O)NCc4ccc(F)cc4F)n3Cc3ccccc32)ccc1-c1ccccc1C [Example 61, N-(2,4-DILUOROBENZYL)-10-[(2-METHOXY-2′-METHYL-1,1′-BIPHENYL-4-YL)CARBONYL]-10,11-DIHYDRO-5H-PYRROLO[2,1-C][1,4]BENZODIAZEPINE-3-CARBOXAMIDE] |  |  | 4.23 µM |  |  | 2.8 µM | 82% | 50(30) %
13 | O=C(NCCc1ccc2c(c1)OCO2)c1ccc2n1Cc1ccccc1N(C(=O)CSc1ccc(Br)cc1)C2 [Example 104, N-[2-(1,3-BENZODIOXOL-5-YL)ETHYL]-10-{[(4-BROMOPHENYL)THIO]ACETYL}-10,11-DIHYDRO-5H-PYRROLO[2,1-C][1,4]BENZODIAZEPINE-3-CARBOXAMIDE] |  |  | > 30 µM | 143 °C |  |  |  | 

Now from value to molecule, other results behind:

Row | IC50 (hFSH-R) | Emax (hFSH-R) | IC50 (human FSH receptor) | melting point | inhibition at 30 µM (human FSH receptor; [1]) | SMILES | IC50 (hFSH-R; [2]) | cAMP % efficacy (hFSH-R; [2]) | CRE % inhibition (μM) (human FSH receptor; [1])
14 | 0.3 µM | 89% | 2.25 µM |  |  | COc1cccc(CNC(=O)c2ccc3n2Cc2ccccc2N(C(=O)c2ccc(-c4ccccc4C)c(C)c2)C3)c1 [Example 7] |  |  | 
15 | 3.6 µM | 63% | 2.39 µM | 127 to 128 °C |  | COc1ccc(CNC(=O)c2ccc3n2Cc2ccccc2N(C(=O)c2ccc(-c4ccccc4C)c(C)c2)C3)cc1 [Example 8] |  |  | 
16 | > 30 µM |  |  | 196 to 197 °C | 58% | Cc1ccccc1-c1ccc(C(=O)N2Cc3ccc(C(=O)NCc4ccc(Cl)cc4)n3Cc3ccccc32)cc1C [Example 18] |  |  | 
17 | 0.2 µM | 100% | 0.8 µM | 129 to 131 °C |  | Cc1ccccc1-c1ccc(C(=O)N2Cc3ccc(C(=O)NCCc4ccc(O)cc4)n3Cc3ccccc32)cc1C [Example 31] |  |  | 
18 |  |  | > 30 µM | 172 to 174 °C |  | COC(=O)c1ccc(NC(=O)c2ccc3n2Cc2ccccc2N(C(=O)COc2ccc(Cl)cc2)C3)cc1OC [Example 95, METHYL 4-[({10-[(4-CHLOROPHENOXY)ACETYL]-10,11-DIHYDRO-5H-PYRROLO[2,1-C][1,4]BENZODIAZEPIN-3-YL}CARBONYL)AMINO]-2-METHOXYBENZOATE] |  |  | 
19 |  |  | > 30 µM | 199 to 201 °C |  | CCOC(=O)c1ccc(NC(=O)c2ccc3n2Cc2ccccc2N(C(=O)COc2ccc(Cl)cc2)C3)cc1 [Example 96, ETHYL 4-[({10-[(4-CHLOROPHENOXY)ACETYL]-10,11-DIHYDRO-5H-PYRROLO[2,1-C][1,4]BENZODIAZEPIN-3-YL}CARBONYL)AMINO]BENZOATE] |  |  | 
20 |  |  | > 30 µM | 176 to 182 °C |  | O=C(Nc1ccc2c(c1)C(O)c1ccccc1-2)c1ccc2n1Cc1ccccc1N(C(=O)COc1ccc(Cl)cc1)C2 (stereo not shown) [Example 97, 10-[(4-CHLOROPHENOXY)ACETYL]-N-(9-HYDROXY-9H-FLUOREN-2-YL)-10,11-DIHYDRO-5H-PYRROLO[2,1-C][1,4]BENZODIAZEPINE-3-CARBOXAMIDE] |  |  | 
21 |  |  | > 30 µM | 213 to 217 °C |  | COC(=O)c1cc(NC(=O)c2ccc3n2Cc2ccccc2N(C(=O)COc2ccc(Cl)cc2)C3)cc(C(=O)OC)c1 [Example 98, DIMETHYL 5-[({10-[(4-CHLOROPHENOXY)ACETYL]-10,11-DIHYDRO-5H-PYRROLO[2,1-C][1,4]BENZODIAZEPIN-3-YL}CARBONYL)AMINO]ISOPHTHALATE] |  |  | 
22 |  |  | > 30 µM | 179 to 180 °C |  | CCOC(=O)c1cccc(NC(=O)c2ccc3n2Cc2ccccc2N(C(=O)COc2ccc(Cl)cc2)C3)c1 [Example 99, ETHYL 3-[({10-[(4-CHLOROPHENOXY)ACETYL]-10,11-DIHYDRO-5H-PYRROLO[2,1-C][1,4]BENZODIAZEPIN-3-YL}CARBONYL)AMINO]BENZOATE] |  |  | 
23 |  |  | > 30 µM | 185 to 189 °C |  | O=C(Nc1cccc(-c2ccccc2)c1)c1ccc2n1Cc1ccccc1N(C(=O)COc1ccc(Cl)cc1)C2 [Example 100, N-(1,1′-BIPHENYL-3-YL)-10-[(4-CHLOROPHENOXY)ACETYL]-10,11-DIHYDRO-5H-PYRROLO[2,1-C][1,4]BENZODIAZEPINE-3-CARBOXAMIDE] |  |  | 
24 |  |  | > 30 µM | 133 to 136 °C |  | CN(C)c1cccc(NC(=O)c2ccc3n2Cc2ccccc2N(C(=O)COc2ccc(Cl)cc2)C3)c1 [Example 101, 10-[(4-CHLOROPHENOXY)ACETYL]-N-[3-(DIMETHYLAMINO)PHENYL]-10,11-DIHYDRO-5H-PYRROLO[2,1-C][1,4]BENZODIAZEPINE-3-CARBOXAMIDE] |  |  | 
25 |  |  | > 30 µM | 111 to 113 °C |  | CC(C)(C)c1ccc(NC(=O)c2ccc3n2Cc2ccccc2N(C(=O)COc2ccc(Cl)cc2)C3)cc1 [Example 102, N-(4-TERT-BUTYLPHENYL)-10-[(4-CHLOROPHENOXY)ACETYL]-10,11-DIHYDRO-5H-PYRROLO[2,1-C][1,4]BENZODIAZEPINE-3-CARBOXAMIDE] |  |  | 
26 |  |  | > 30 µM | 277 to 278 °C |  | O=C1c2cc(Br)ccc2-c2ccc(NC(=O)c3ccc4n3Cc3ccccc3N(C(=O)COc3ccc(Cl)cc3)C4)cc21 [Example 103, N-(7-BROMO-9-OXO-9H-FLUOREN-2-YL)-10-[(4-CHLOROPHENOXY)ACETYL]-10,11-DIHYDRO-5H-PYRROLO[2,1-C][1,4]BENZODIAZEPINE-3-CARBOXAMIDE] |  |  | 
